Legend:
Sprague-Dawley rats = test: in vivo subcutaneous ectopic mineralization model (collagen sponge implant); design: species or system rat; conditions: 4 weeks; for dose-response of ectopic mineralization: 10, 25, 50, 75 and 100 mM on collagen sponge; for de novo ectopic mineralization: standalone agent on plain collagen sponge, 0-100 mM, subcutaneous on chest
Protocol: Compound was delivered in 100 uL at indicated concentration for each collagen disc in DMSO solvent before subcutaneous implantation.
Sclerostin inhibitors were tested in a challenging in vivo subcutaneous ectopic mineralization model. Other than the osteoinductive BMPs, few if any proteins or small molecules are capable of inducing de novo ectopic mineralization in this rat model. Sclerostin inhibitors were loaded individually as standalone agents onto a plain collagen sponge (DSM) at 0, 10, 25, 50, 75, and 100 mM and then surgically implanted subcutaneously on the chest of 6-week-old male Sprague-Dawley rats for 4 weeks. A positive control of 10 μg of recombinant BMP-2 was also tested.

[1] = system: AXIN2, Wnt1 and SOST mRNA; test: BMP-2-induced marker gene expression in Wnt pathway (mRNA levels) in MC3T3 cells; format: cell-based; conditions: 10 uM compound, BMP-2 35 ng/ml, MC3T3 cells treated for 48 hrs
[2] = system: rabbit posterolateral spine fusion; test: rabbit model of posterolateral lumbar arthrodesis (spinal fusion); format: in vivo; conditions: for spinal fusion rates compared to controls: 300 mM; for spinal fusion rates compared to controls / spines successfully fused: 6 weeks; for spines successfully fused: 500 mM as standalone drug on plain collagen sponge without ICBG; for posterolateral spine fusion rate: 500 mM in combination with autologous iliac crest bone graft (ICBG), 6 weeks after arthrodesis
Protocol: Coronal μCT reconstructions of rabbit spines 6 weeks following posterolateral spine arthrodesis are shown.
C07 and VA1 were assessed for their ability to enhance spinal fusion rates in vivo using a validated rabbit model of posterolateral lumbar arthrodesis. Both were tested as standalone osteoinductive drugs, as well as in combination with autologous ICBG, using two separate doses (300 and 500 mM). All rabbits were euthanized six weeks following arthrodesis surgery and the spine fusion masses were assessed by both plain radiography and μCT. Successful fusion, defined as continuous bridging bone between the TPs, was assessed by two spine surgeons.

[3] = target: T1, sclerostin and LRP5 interaction (Homo sapiens, UniProt Q9BQB4); test: in vitro binding assay with purified recombinant sclerostin and LRP5 proteins (125-Iodine-labeled sclerostin, biotin-labeled LRP5 pull-down); conditions: 0.1 ug biotin-labeled LRP5, 20,000 cpm 125-Iodine-labeled sclerostin, 30 min at room temperature
T1 sequence (Q9BQB4 24-213): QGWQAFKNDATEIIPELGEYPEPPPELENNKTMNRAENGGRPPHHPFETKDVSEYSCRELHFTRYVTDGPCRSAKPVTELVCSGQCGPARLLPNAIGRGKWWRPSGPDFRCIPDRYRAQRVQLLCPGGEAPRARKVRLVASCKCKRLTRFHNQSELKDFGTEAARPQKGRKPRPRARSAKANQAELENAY
Protocol: (§1) To ensure that sclerostin was in fact being expressed in cell lines, we tested C2C12, MSC and MC3T3 cell lines. Western blots were performed using anti-sclerostin mAbs both with and without BMP-2 treatment. […] Sclerostin and LRP5 was labeled with 125-Iodine and biotin, respectively. Constant amounts of biotin-labeled LRP5 (0.1 ug) and 125-Iodine-labeled sclerostin (20,000 cpm) were incubated with or without varying concentrations of unlabeled-sclerostin+/−various concentrations of compounds for 30 min at room temperature in a 100 uL assay buffer. Biotin-labeled LRP5 was pulled down with a 20 uL slurry of neutravidin-agarose beads. The counts associated with pellets were counted in a Beckman 4000 Gamma counter. Unlabeled sclerostin competed off about 90% of labeled-sclerostin.

[4] = target: purified recombinant LRP5; test: radioligand competition pull-down: 125I-sclerostin and biotin-LRP5, neutravidin-agarose beads, gamma counting; competitor unlabeled sclerostin
Sclerostin protein = test: Western blots using anti-sclerostin mAbs with and without BMP-2 treatment; format: cell-based; conditions: C2C12, MSC and MC3T3 cell lines
Protocol: as §1

In the case of `N#Cc1ccc(NCCNc2ncccn2)nc1` [Compound C07, 6-((2-(pyrimidin-2-ylamino)ethyl)amino)nicotinonitrile], the “dose-response of ectopic mineralization” value (Sprague-Dawley rats) is reported as “clearer dose-response”, the “de novo ectopic mineralization” value (Sprague-Dawley rats) is reported as “significant de novo ectopic mineralization” and the “BMP-induced mRNA levels of AXIN2, Wnt1 and SOST compared to BMP-2 alone control” value [1] is reported as “elevation”. The “spinal fusion rates compared to controls” value [2] was “Neither VA1 nor C07 at 300 mM showed any increase”, the spines successfully fused [2] was 33% and the “posterolateral spine fusion rate” value [2] was 85%.

With `CCCC(CCC)C(=O)O` [VA1, valproic acid] the “dose-response of ectopic mineralization” value (Sprague-Dawley rats) was “lack of a clear dose-response”, the “de novo ectopic mineralization” value (Sprague-Dawley rats) was “significant de novo ectopic mineralization” and the “BMP-induced mRNA levels of AXIN2, Wnt1 and SOST compared to BMP-2 alone control” value [1] was “elevation”. For the same molecule, the “spinal fusion rates compared to controls” value [2] was “Neither VA1 nor C07 at 300 mM showed any increase”, the spines successfully fused [2] was 17% and the “posterolateral spine fusion rate” value [2] was 80%.

“Unlabeled sclerostin: purified recombinant sclerostin protein, unlabeled competitor in the LRP5 binding assay” was tested, and the labeled-sclerostin competed off [3] was “about 90%”.

Work on “purified recombinant sclerostin (ligand)” yielded a percent of labeled sclerostin competed off [4] of 90%.

B1: BMP2: bone morphogenetic protein 2, growth factor used to treat cells (protein, listed as Homo sapiens)
chain: MVAGTRCLLALLLPQVLLGGAAGLVPELGRRKFAAASSGRPSSQPSDEVLSEFELRLLSMFGLKQRPTPSRDAVVPPYMLDLYRRHSGQPGSPAPDHRLERAASRANTVRSFHHEESLEELPETSGKTTRRFFFNLSSIPTEEFITSAELQVFREQMQDALGNNSSFHHRINIYEIIKPATANSKFPVTRLLDTRLVNQNASRWESFDVTPAVMRWTAQGHANHGFVVEVAHLEEKQGVSKRHVRISRSLHQDEHSWSQIRPLLVTFGHDGKGHPLHKREKRQAKHKQRKRLKSSCKRHPLYVDFSDVGWNDWIVAPPGYHAFYCHGECPFPLADHLNSTNHAIVQTLVNSVNSKIPKACCVPTELSAISMLYLDENEKVVLKNYQDMVVEGCGCR
In the case of B1, the Sclerostin protein levels (Sclerostin protein) is reported as “increased protein levels”.

— patent US20220133957A1, “Sclerostin Inhibitors That Promote Bone Morphogenetic Protein Expression” (Emory University, priority 2019, published 2022)
